Test results reported in publication PMC12266748, “A Xanthine Derivative With Novel Heat Shock Protein 90‐Alpha Inhibitory and Senolytic Properties” (Aging Cell, 2025).
Like-named read-outs stand apart in the source and are kept apart here.

Key:
MCF7 cells = assay: SA-β-galactosidase colorimetric assay on Tamoxifen-treated MCF7; type: cell-based, Homo sapiens
Procedure: Previously treated cells were fixed according to the protocols established by the supplier (Cell Signaling). The images were acquired using an optical microscope (Leica) with 5× and 10× magnification (MAG) or the phase microscopy EVOS XL Core at 10× MAG and analyzed using the ImageJ software. The mean signal intensity was then normalized for the total number of cells.
MCF7 cell line (ATCC; HTB-22, Homo sapiens, breast cancer) was purchased from ATCC; cells were grown in MEM medium (Corning, New York, USA, #15-010-CVR) supplemented with 10% FBS (Gibco, Invitrogen, Carlsbad, CA, USA, #10270106), 1% glutamine (Corning #25005-CI), 1% penicillin and streptomycin (Corning #30002-CI). Cells were incubated at 37 °C with 5% CO2. […] Cell mortality and vitality curves after treatment with K5 (10 μM, orange) or Vehicle (DMSO, grey) were monitored using the Incucyte live-cell Analysis system (Sartorius, Goettingen, Germany). The estimated Senolytic index (SI) was calculated as the ratio between the EC50 in proliferating cells and the EC50 in senescent cells, extrapolated using GraphPad Prism 10 software.
β-galactosidase colorimetric assay. […] The images were analyzed using the ImageJ software, quantifying the colorimetric signal emitted by each cell. […]

[1] = test system: Mouse ear fibroblasts (MearF); assay: MTT viability of Doxorubicin-induced senescent and non-senescent murine ear fibroblasts; type: cell-based, C57BL/6J mice; conditions: for EC50: Mus musculus, Fibroblast
Excerpt: IMR90 and WI38 lung fibroblasts were purchased from ECACC‐Merck. Human bone marrow (BM)‐derived mesenchymal stromal cells (MSCs) were purchased from Lonza. Human umbilical vein endothelial cells (HUVECs) are primary cells obtained from a pool of donors purchased from Clonetics (Lonza). Murine ear fibroblasts (MearFs) were obtained from C57BL/6J mice maintained in the INRCA “Specific Pathogen Free” (SPF) animal facility. MCF7 breast cancer cells were purchased from ATCC. For dose–response curves, IMR90 and WI38 were induced to senescence through replicative passages; MSCs, HUVECs, and MearFs senescence was induced with Doxorubicin; MCF7 senescence was induced with 4‐Hydroxytamoxifen (Lee et al. [2014]). The EC50 was calculated using GraphPad Prism 10 software. All treatment specifications are reported in the extended section.
Cell viability was determined using an MTT assay. Absorbance was measured using a NB‐12‐0035 Microplate Reader (NeoBiotech Co.). Data are expressed as a percentage of viability compared with untreated cells.
Murine ear fibroblasts (MearFs) were obtained from C57BL/6J mice maintained in the INRCA "Specific Pathogen Free" (SPF) animal facility. The ear biopsies (2 mm radius) were obtained with a dedicated puncher, and cells recovered as previously described (Malavolta et al. 2022). Cells were seeded at a density of 5000/cm^2 in T75 flasks (Corning Costar, Sigma Aldrich, St. Louis, MO, USA) and maintained at 37°C in a 95% humidified incubator with 5% CO2. Culture was carried out in RPMI (Euroclone, Milano, Italy) supplemented with 10% Fetal Calf Serum (FCS, Sigma-Aldrich, St. Louis, MO, USA), 2mM L-Glutamine, 100 U/mL penicillin and […] streptomycin (all from Sigma- Aldrich, St. Louis, MO, USA). At approximately 80% confluence, the cells were detached from the plate by incubation with trypsin-EDTA (Sigma-Aldrich, St. Louis, MO, USA) for 5 min at 37 °C and re-plated. For Doxorubicin-induced senescence, cells were seeded in a 96-well plate at a 5000 cells/cm2 density. MSC cells were treated with 100 nM Doxorubicin (DOX) for 24 h and then maintained with medium for 4 days; HUVECs were treated with 50 nM DOX for 24 h and then maintained with medium for 4 days. MearFs were induced to senescence by continuous exposure (5 days) to 75 nM DOX. […]
Cell viability assay. Cell viability has been determined with MTT (3-(4,5-dimethylthiazol-2-yl)-2, 5-diphenyltetrazolium bromide) assay. […] Insoluble formazan salts produced were solubilized with DMSO incubation, and then absorbance was measured at 540 nm using a microplate reader (NB-12-0035 Microplate Reader, NeoBiotech Co., Seoul, Republic of Korea). Data are expressed as a percentage of viability compared with untreated cells (the control group has been considered 100% of viability).

## Cc1ccccc1-n1c(=O)n(Cc2ccccc2)c(=O)c2[nH]cnc21 [Compound K5, 1-benzyl-3-(2-methylphenyl)-7H-purine-2,6-dione]
MCF7 cells; MCF7, TAM 10 μM 96 h then K5 10 μM 24 to 96 h, Vehicle 40%
  SA-β-gal positive senescent cells: 10%
MCF7 cells; Tamoxifen-induced senescent MCF7
  reduced SA-β-gal: 30%
[1]; DNA damage (Doxorubicin)
  Senolytic evidence (no, partly/yes): No
[1]; MTT
  difference in vitality, DOXO-induced senescent vs non-senescent proliferating cells: no discernible difference
[1]; DNA damage (Doxorubicin), MTT, read-out: EC50 senescent cells
  EC50: > 500 µM
[1]; MTT, read-out: EC50 proliferating cells
  EC50: > 500 µM
